From patent US8952024B2, “Herbicidal pyrimidone derivatives” (E I du Pont de Nemours and Company, priority 2009, dated 2015)
Read-outs that look alike come from different tables or passages of the source.

Tests used:
Type in all cases: in vivo
[1] = tested on: large crabgrass (Digitaria sanguinalis); assay: Test A pre-/postemergence plant response; settings: Digitaria sanguinalis, 240 h; for pest or weed control at 125 g/ha: 125 g ai/ha; for pest or weed control at 500 g/ha: 500 g ai/ha
In short: (§1)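 Injury scores (0, no effect; 100, complete control) come from visual comparison with untreated controls roughly ten days post-treatment. Test chemicals in a surfactant-containing non-phytotoxic solvent were applied as a directed soil spray preemergence and to one- to two-leaf seedlings postemergence.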

[2] = tested on: giant foxtail (Setaria faberii); assay: Test A pre-/postemergence plant response; settings: Setaria faberi, 240 h; for pest or weed control at 125 g/ha: 125 g ai/ha; for pest or weed control at 500 g/ha: 500 g ai/ha
In short: as §1

corn (Zea mays) = assay: Test A pre-/postemergence plant response; settings: Zea mays, 240 h; for Corn plant response rating (crop injury, 0 = no effect, 100 = complete kill) at 500 g/ha: 500 g ai/ha
In short: as §1

[3] = tested on: wheat (Triticum aestivum); assay: Test A pre-/postemergence plant response; settings: Triticum aestivum, 240 h; for plant injury at 125 g/ha: 125 g ai/ha; for plant injury at 500 g/ha: 500 g ai/ha
In short: as §1

[4] = tested on: morningglory (Ipomoea spp.); assay: Test A pre-/postemergence plant response; settings: Ipomoea, 240 h; for pest or weed control at 125 g/ha: 125 g ai/ha; for pest or weed control at 500 g/ha: 500 g ai/ha
In short: as §1

[5] = tested on: velvetleaf (Abutilon theophrasti); assay: Test A pre-/postemergence plant response; settings: Abutilon theophrasti, 240 h; for pest or weed control at 125 g/ha: 125 g ai/ha; for pest or weed control at 500 g/ha: 500 g ai/ha
In short: as §1

[6] = tested on: nightshade (eastern black nightshade, Solanum ptycanthum); assay: Test B pre-/postemergence plant response; settings: Preemergence
In short: (§2)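 Visual ratings on a 0–100 scale (100 = complete control) were made versus untreated controls 13–15 days after treatment in a greenhouse. Compounds in surfactant-containing non-phytotoxic solvent were applied preemergence to seeds in loam–sand blend or postemergence to 1- to 4-leaf plants (2–18 cm).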

[7] = tested on: sunflower (common oilseed sunflower, Helianthus annuus); assay: Test B pre-/postemergence plant response; settings: Preemergence
In short: as §2

[8] = tested on: galium (catchweed bedstraw, Galium aparine); assay: Test B pre-/postemergence plant response; settings: Preemergence
In short: as §2

[9] = tested on: winter barley (Hordeum vulgare); assay: Test B postemergence plant response; settings: Postemergence
In short: (§3)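 Plants at the 1- to 4-leaf stage (2 to 18 cm tall), grown in pots of peat moss/vermiculite medium with wetting agent and starter nutrients, received postemergence applications of test chemicals. After 13 to 15 days in a greenhouse, injury was rated visually against untreated controls on a 0 (no effect) to 100 (complete control) scale.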

[10] = tested on: windgrass (Apera spica-venti); assay: Test B postemergence plant response; settings: Apera spica-venti, post-emergence, 360 h; Postemergence, 125 g ai/ha; visual rating after 13 to 15 days, scale 0 (no effect) to 100 (complete control)
In short: as §3

[11] = tested on: canarygrass (Phalaris minor); assay: Test B postemergence plant response; settings: Postemergence
In short: as §3

[12] = tested on: chickweed (Stellaria media); assay: Test B postemergence plant response; settings: Postemergence
In short: as §3

[13] = 31 g ai/ha, scale 0 to 100 (0 no effect, 100 complete control)
[14] = 62 g ai/ha, scale 0 to 100, 0 no effect, 100 complete control

Structure (SMILES): Cc1c(F)cccc1-n1c(-c2ccccc2)ncc(C(=O)C2=C(O)CCCC2=O)c1=O [Compound 47, 3-(3-fluoro-2-methylphenyl)-5-[(2-hydroxy-6-oxo-1-cyclohexen-1-yl)carbonyl]-2-phenyl-4(3H)-pyrimidinone]
- pest or weed control at 125 g/ha ([1]; post-emergence, Postemergence, visual injury, 0 to 100 scale (0 no effect, 100 complete control), approx. ten days, read-out: Crabgrass, Large plant response rating): 90%
- pest or weed control at 500 g/ha ([1]; post-emergence, Postemergence, 0 to 100 scale, 0 = no effect, 100 = complete control, approx. ten days, read-out: Plant response rating, Crabgrass, Large): 100%
- pest or weed control at 125 g/ha ([1]; pre-emergence, Preemergence, 0 to 100 scale, 0 = no effect, 100 = complete control, read-out: Plant response rating, Crabgrass, Large): 70%
- pest or weed control at 500 g/ha ([1]; pre-emergence, Preemergence, visual injury, 0 to 100 scale (0 no effect, 100 complete control), approx. ten days, read-out: Plant response rating, Crabgrass, Large): 100%
- pest or weed control at 125 g/ha ([2]; post-emergence, Postemergence, visual injury, 0 to 100 scale (0 no effect, 100 complete control), approx. ten days, read-out: Foxtail, Giant plant response rating): 90%
- pest or weed control at 500 g/ha ([2]; post-emergence, Postemergence, 0 to 100 scale, 0 = no effect, 100 = complete control, approx. ten days, read-out: Plant response rating, Foxtail, Giant): 100%
- pest or weed control at 125 g/ha ([2]; pre-emergence, Preemergence, 0 to 100 scale, 0 = no effect, 100 = complete control, read-out: Plant response rating, Foxtail, Giant): 50%
- pest or weed control at 500 g/ha ([2]; pre-emergence, Preemergence, visual injury, 0 to 100 scale (0 no effect, 100 complete control), approx. ten days, read-out: Plant response rating, Foxtail, Giant): 90%
- plant injury at 125 g/ha (corn (Zea mays); post-emergence, Postemergence, 125 g ai/ha, visual injury, 0 to 100 scale (0 no effect, 100 complete control), approx. ten days, read-out: Corn plant response rating): 0%
- Corn plant response rating (crop injury, 0 = no effect, 100 = complete kill) at 500 g/ha (corn (Zea mays); post-emergence, Postemergence, 0 to 100 scale, 0 = no effect, 100 = complete control, approx. ten days): 70%
- Corn plant response rating (crop injury, 0 = no effect, 100 = complete kill) at 125 g/ha (corn (Zea mays); pre-emergence, Preemergence, 125 g ai/ha, 0 to 100 scale, 0 = no effect, 100 = complete control): 0%
- Corn plant response rating (crop injury, 0 = no effect, 100 = complete kill) at 500 g/ha (corn (Zea mays); pre-emergence, Preemergence, visual injury, 0 to 100 scale (0 no effect, 100 complete control), approx. ten days): 0%
- plant injury at 125 g/ha ([3]; post-emergence, Postemergence, visual injury, 0 to 100 scale (0 no effect, 100 complete control), approx. ten days, read-out: Wheat plant response rating): 0%
- plant injury at 500 g/ha ([3]; post-emergence, Postemergence, 0 to 100 scale, 0 = no effect, 100 = complete control, approx. ten days, read-out: Plant response rating, Wheat): 0%
- plant injury at 125 g/ha ([3]; pre-emergence, Preemergence, 0 to 100 scale, 0 = no effect, 100 = complete control, read-out: Plant response rating, Wheat): 0%
- plant injury at 500 g/ha ([3]; pre-emergence, Preemergence, visual injury, 0 to 100 scale (0 no effect, 100 complete control), approx. ten days, read-out: Plant response rating, Wheat): 0%
- pest or weed control at 125 g/ha ([4]; post-emergence, Postemergence, visual injury, 0 to 100 scale (0 no effect, 100 complete control), approx. ten days, read-out: Morningglory plant response rating): 80%
- pest or weed control at 500 g/ha ([4]; post-emergence, Postemergence, 0 to 100 scale, 0 = no effect, 100 = complete control, approx. ten days, read-out: Plant response rating, Morningglory): 100%
- pest or weed control at 125 g/ha ([4]; pre-emergence, Preemergence, 0 to 100 scale, 0 = no effect, 100 = complete control, read-out: Plant response rating, Morningglory): 60%
- pest or weed control at 500 g/ha ([4]; pre-emergence, Preemergence, visual injury, 0 to 100 scale (0 no effect, 100 complete control), approx. ten days, read-out: Plant response rating, Morningglory): 90%
- pest or weed control at 125 g/ha ([5]; post-emergence, Postemergence, visual injury, 0 to 100 scale (0 no effect, 100 complete control), approx. ten days, read-out: Velvetleaf plant response rating): 100%
- pest or weed control at 500 g/ha ([5]; post-emergence, Postemergence, 0 to 100 scale, 0 = no effect, 100 = complete control, approx. ten days, read-out: Plant response rating, Velvetleaf): 100%
- pest or weed control at 125 g/ha ([5]; pre-emergence, Preemergence, 0 to 100 scale, 0 = no effect, 100 = complete control, read-out: Plant response rating, Velvetleaf): 70%
- pest or weed control at 500 g/ha ([5]; pre-emergence, Preemergence, visual injury, 0 to 100 scale (0 no effect, 100 complete control), approx. ten days, read-out: Plant response rating, Velvetleaf): 100%
- Plant response rating, Nightshade ([6]; 250 g ai/ha, 0 to 100 scale): 100
- Plant response rating, Nightshade [6, 13]: 100
- Plant response rating, Nightshade [6, 14]: 100
- Nightshade plant response rating ([6]; 125 g ai/ha, 0 to 100 scale): 100
- Plant response rating, Sunflower ([7]; 250 g ai/ha, 0 to 100 scale): 85
- Plant response rating, Sunflower [7, 13]: 65
- Sunflower plant response rating ([7]; 125 g ai/ha, 0 to 100 scale): 80
- Plant response rating, Galium ([8]; 250 g ai/ha, 0 to 100 scale): 95
- Plant response rating, Galium [8, 13]: 50
- Plant response rating, Galium [8, 14]: 50
- Galium plant response rating ([8]; 125 g ai/ha, 0 to 100 scale): 50
- plant injury at 31 g/ha ([9]; Hordeum vulgare, post-emergence, 31 g ai/ha, scale 0 to 100 (0 no effect, 100 complete control), read-out: Plant response rating, Barley): 5%
- plant injury at 62 g/ha ([9]; Hordeum vulgare, post-emergence, 62 g ai/ha, scale 0 (no effect) to 100 (complete control), 13 to 15 days, read-out: Plant response rating, Barley): 10%
- plant injury at 125 g/ha ([9]; Hordeum vulgare, post-emergence, 125 g ai/ha, visual rating after 13 to 15 days, scale 0 (no effect) to 100 (complete control)): 10%
- Barley plant response rating ([9]; 250 g ai/ha, scale 0 to 100): 35
- pest or weed control at 125 g/ha [10]: 80%
- pest or weed control at 31 g/ha ([11]; Phalaris minor, post-emergence, 360 h, 31 g ai/ha, scale 0 to 100 (0 no effect, 100 complete control), read-out: Plant response rating, Canarygrass): 20%
- pest or weed control at 62 g/ha ([11]; Phalaris minor, post-emergence, 360 h, 62 g ai/ha, scale 0 (no effect) to 100 (complete control), 13 to 15 days, read-out: Plant response rating, Canarygrass): 30%
- pest or weed control at 125 g/ha ([11]; Phalaris minor, post-emergence, 360 h, 125 g ai/ha, visual rating after 13 to 15 days, scale 0 (no effect) to 100 (complete control)): 40%
- Canarygrass plant response rating ([11]; 250 g ai/ha, scale 0 to 100): 40
- Chickweed plant response rating ([12]; 250 g ai/ha, scale 0 to 100): 100
- pest or weed control at 31 g/ha ([12]; Stellaria media, post-emergence, 360 h, 31 g ai/ha, scale 0 to 100 (0 no effect, 100 complete control), read-out: Plant response rating, Chickweed): 85%
- pest or weed control at 62 g/ha ([12]; Stellaria media, post-emergence, 360 h, 62 g ai/ha, scale 0 (no effect) to 100 (complete control), 13 to 15 days, read-out: Plant response rating, Chickweed): 98%
- pest or weed control at 125 g/ha ([12]; Stellaria media, post-emergence, 360 h, 125 g ai/ha, visual rating after 13 to 15 days, scale 0 (no effect) to 100 (complete control)): 100%
